Source: ChEMBL document CHEMBL1909498, “Secoiridoid glucosides and related compounds from Syringa reticulata and their antioxidant activities” (Bioorg Med Chem Lett, 2011)

Tests used:
[1] = system: Radical scavenging activity; assay: Antioxidant activity assessed as DPPH radical scavenging activity after 30 mins by spectrophotometric analysis; format: functional
[2] = Antioxidant activity assessed as superoxide radical scavenging activity after 20 mins by spectrophotometric analysis; format: functional

Compound	EC50 [1] [µM]	EC50 [2] [µM]
COc1cc([C@H]2OC[C@H]3[C@@H]2CO[C@@H]3c2cc(OC)c(O[C@@H]3O[C@H](CO)[C@@H](O)[C@H](O)[C@H]3O)c(OC)c2)cc(OC)c1O	> 100	> 100
COc1cc([C@H]2OC[C@H]3[C@@H]2CO[C@@H]3c2ccc(O[C@@H]3O[C@H](CO)[C@@H](O)[C@H](O)[C@H]3O)c(OC)c2)ccc1O	> 100	18.6
OC[C@H]1O[C@@H](OCCc2ccc(O)c(O)c2)[C@H](O)[C@@H](O)[C@@H]1O	33	4.97
COc1cc([C@H]2c3cc(O[C@@H]4O[C@H](CO)[C@@H](O)[C@H](O)[C@H]4O)c(OC)cc3C[C@@](O)(CO)[C@@H]2CO)ccc1O	> 100	39.3
COc1cc(C[C@]2(O)CO[C@@H](c3ccc(O[C@H]4O[C@@H](CO)[C@H](O)[C@@H](O)[C@@H]4O)c(OC)c3)[C@@H]2CO)ccc1O	> 100	> 100
COc1cc([C@@H]2OC[C@@](O)(Cc3ccc(O[C@@H]4O[C@H](CO)[C@@H](O)[C@H](O)[C@H]4O)c(OC)c3)[C@H]2CO)ccc1O	> 100	25.3
COc1cc(C[C@@H]2CO[C@@H](c3cc(OC)c(O)c(OC)c3)[C@@H]2CO)ccc1O[C@@H]1O[C@H](CO)[C@@H](O)[C@H](O)[C@H]1O [ARMANDISIDE]	> 100	10.6
COc1cc(/C=C/C=O)ccc1O[C@@H]1O[C@H](CO)[C@@H](O)[C@H](O)[C@H]1O [CONIFERYALDEHYDE GLUCOSIDE]	> 100	> 100
COc1cc(/C=C/CO[C@H]2O[C@@H](CO)[C@H](O)[C@@H](O)[C@@H]2O)cc(OC)c1O[C@@H]1O[C@H](CO)[C@@H](O)[C@H](O)[C@H]1O [ISOSYRINGINOSIDE]	> 100	14.1
C/C=C1/[C@H](O[C@@H]2O[C@H](CO)[C@@H](O)[C@H](O)[C@H]2O)OC=C(C(=O)OC)[C@H]1CC(=O)OC[C@H]1O[C@@H](O[C@@H]2OC=C(C(=O)OC)[C@@H](CC(=O)OCCc3ccc(O)c(O)c3)/C2=C\C)[C@H](O)[C@@H](O)[C@@H]1O [JASPOLYOSIDE]	> 100	4.97
C/C=C1/[C@H](O[C@@H]2O[C@H](CO)[C@@H](O)[C@H](O)[C@H]2O)OC=C(C(=O)OC)[C@H]1CC(=O)OCCc1ccc(O)cc1 [LIGSTROSIDE]	> 100	> 100
COc1cc([C@H]2OC[C@H]3[C@@H]2CO[C@@H]3c2cc(OC)c(O[C@@H]3O[C@H](CO)[C@@H](O)[C@H](O)[C@H]3O)c(OC)c2)cc(OC)c1O[C@H]1O[C@@H](CO)[C@H](O)[C@@H](O)[C@@H]1O [LIRIODENDRTACHIOSIDE]	> 100	16
C/C=C1/[C@H](O[C@@H]2O[C@H](CO)[C@@H](O)[C@H](O)[C@H]2O)OC=C(C(=O)OC)[C@H]1CC(=O)OCCc1ccc(O)c(O)c1 [OLEUROPEIN]	20.8	2.57
C/C=C1/[C@H](O[C@@H]2O[C@H](CO)[C@@H](O)[C@H](O)[C@H]2O)OC=C(C(=O)OC)[C@H]1CC(=O)OC[C@H]1O[C@@H](Oc2c(OC)cc(/C=C/CO)cc2OC)[C@H](O)[C@@H](O)[C@@H]1O [RETICULOSIDE]	> 100	64.1
OC[C@H]1O[C@@H](OCCc2ccc(O)cc2)[C@H](O)[C@@H](O)[C@@H]1O [SALIDROSIDE]	> 100	> 100
COc1cc(/C=C/C=O)cc(OC)c1O[C@@H]1O[C@H](CO)[C@@H](O)[C@H](O)[C@H]1O [SINAPALDEHYDE GLUCOSIDE]	> 100	> 100
COc1cc(/C=C/CO)cc(OC)c1O[C@@H]1O[C@H](CO)[C@@H](O)[C@H](O)[C@H]1O [SYRINGIN]	> 100	70.9
